We go through one compound from patent US20220152065A1, “METHOD OF BLOCKING OR AMELIORATING CYTOKINE RELEASE SYNDROME” (Rigel Pharmaceuticals, Inc., priority 2019, published 2022).

Test [1] relates to Dendritic cells + T cells + CD3/CD28 beads (IL-6 production). The test is described as follows: CRS assay: IL6 ELISA of supernatant from dendritic cells + T cells + CD3/CD28 beads. The class given is cell-based. Conditions: human PBMC-derived dendritic cells, 1 h compound pre-incubation, T cells with CD3/CD28 beads overnight; IL-6 in supernatant.
Description: Transfer human PBMC cells (400 million) obtained from the vendor into three T-175 flasks containing 16 ml RPMI media (10% FBS) and incubate for 2 h at 37° C. After 2 h, remove floating PBL and rinse cell twice with 10 ml of media. Save PBL and media for T cell expansion. Add 16 ml of fresh RPMI media (10% FBS) containing GMCSF (100 ng/ml) and IL4 (20 ng/ml) and keep the flask in 37° C. incubator. […]
After 4 days, harvest the dendritic cells by spinning down (1000 rpm/10 min) and aspirate the media. […] To the remaining 40 μl/well of the cell culture plate add 25 μl of Cell Titer Glo reagent, incubate for 1-2 minutes on a shaker and read the plate for luminescence intensity to determine the compound cytotoxicity. […]
Test [2] deals with Dendritic cells + T cells + CD3/CD28 beads (IL-2 production). The test is described as follows: CRS assay: IL2 ELISA of supernatant from dendritic cells + T cells + CD3/CD28 beads. It is filed as cell-based. Conditions: human PBMC-derived dendritic cells, 1 h compound pre-incubation, T cells with CD3/CD28 beads overnight; IL-2 in supernatant. The text has this: • 1. Human PBMC cells (PPA Research Group, Cat No. 15-00021) • 2. RPMI media 10% FBS • 3. GMCSF (Peprotech, Cat No. 300-03) and IL4 (Peprotech Cat No. 200-04) • 4. White clear bottom 96 well plates (Fisher, Cat No. 07-200-587, Corning #3903) • 5. Human IL-2 DuoSet ELISA (R&D Systems, Cat No. DY202) • 6. Human IL-6 DuoSet ELISA (R&D Systems, Cat No. DY206) • 7. Cell Titer Glo reagent (Promega, Cat No. G7573) • 8. Dynabeads Human T-Activator CD3/CD28 (Fisher, Cat No. 111.61D) • 9. Anti-human CD3 (BD Biosciences, Cat No. 555336) • 10. CD28, Clone CD28.2 (Beckman Coulter Inc. Cat No. IM1376) • 11. Recombinant Human IL-2 Protein (R&D Systems, Cat No. 202-IL-500)
Transfer human PBMC cells (400 million) obtained from the vendor into three T-175 flasks containing 16 ml RPMI media (10% FBS) and incubate for 2 h at 37° C. After 2 h, remove floating PBL and rinse cell twice with 10 ml of media. Save PBL and media for T cell expansion. Add 16 ml of fresh RPMI media (10% FBS) containing GMCSF (100 ng/ml) and IL4 (20 ng/ml) and keep the flask in 37° C. incubator. After 3 days, add fresh GMCSF (100 ng/ml) and IL4 (20 ng/ml) to the flask and continue the incubation.
• 1. […]
• 1. […] To the remaining 40 μl/well of the cell culture plate add 25 μl of Cell Titer Glo reagent, incubate for 1-2 minutes on a shaker and read the plate for luminescence intensity to determine the compound cytotoxicity. […]
Background: An ELISA detects its analyte on a solid surface through an enzyme-linked reagent.

The target of test [3] is Fc receptor signaling (degranulation). Conditions: IgE- and IgG-mediated Fc receptor activation; cited from earlier work.

As to `COc1cc(Nc2ncc(F)c(Nc3ccc4c(n3)NC(=O)C(C)(C)O4)n2)cc(OC)c1OC` [Compound R406, 6-((5-fluoro-2-((3,4,5-trimethoxyphenyl)amino)pyrimidin-4-yl)amino)-2,2-dimethyl-2H-pyrido[3,2-b][1,4]oxazin-3(4H)-one], the 50% inhibitory concentration (IC50) in test [1] came out at 0.119 µM; in test [2], 3.14 µM. In addition, the EC50 in test [3] is 56 to 64 nM.

Usually IC50 stands for the midpoint of a concentration-inhibition curve. A word on the EC50: it is the concentration needed to bring the measured effect to its halfway point.
